Laboratory results from US8173635B2, “Kinase inhibitors” (Vertex Pharmaceuticals Incorporated, priority 2007, dated 2012).
pKi: −log10 of the molar value.

Legend:
Format in all cases: biochemical
[1] = target: PKC theta kinase (Homo sapiens, UniProt Q04759); assay: PKC theta kinase inhibition, coupled-enzyme NADH absorbance assay (Ki); conditions: 240 μM ATP, 18 nM PKC theta, 30° C.; read-out: Ki PKC theta
In short: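 Enzyme and compound equilibrated 10 min at 30 °C before reaction in HEPES pH 7.5 buffer with MgCl2, NaCl, EDTA and Brij. Activity tracked as NADH loss at 340 nm through a coupled system. Initial-rate data fitted by non-linear regression to give Ki.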

[2] = target: PKC delta kinase (Homo sapiens, UniProt Q05655); assay: PKC delta kinase inhibition, coupled-enzyme NADH absorbance assay (Ki); conditions: 150 μM ATP, 46 nM PKC delta, 30° C.; read-out: Ki PKC delta
PKC delta kinase, sequence (Q05655 whole entry): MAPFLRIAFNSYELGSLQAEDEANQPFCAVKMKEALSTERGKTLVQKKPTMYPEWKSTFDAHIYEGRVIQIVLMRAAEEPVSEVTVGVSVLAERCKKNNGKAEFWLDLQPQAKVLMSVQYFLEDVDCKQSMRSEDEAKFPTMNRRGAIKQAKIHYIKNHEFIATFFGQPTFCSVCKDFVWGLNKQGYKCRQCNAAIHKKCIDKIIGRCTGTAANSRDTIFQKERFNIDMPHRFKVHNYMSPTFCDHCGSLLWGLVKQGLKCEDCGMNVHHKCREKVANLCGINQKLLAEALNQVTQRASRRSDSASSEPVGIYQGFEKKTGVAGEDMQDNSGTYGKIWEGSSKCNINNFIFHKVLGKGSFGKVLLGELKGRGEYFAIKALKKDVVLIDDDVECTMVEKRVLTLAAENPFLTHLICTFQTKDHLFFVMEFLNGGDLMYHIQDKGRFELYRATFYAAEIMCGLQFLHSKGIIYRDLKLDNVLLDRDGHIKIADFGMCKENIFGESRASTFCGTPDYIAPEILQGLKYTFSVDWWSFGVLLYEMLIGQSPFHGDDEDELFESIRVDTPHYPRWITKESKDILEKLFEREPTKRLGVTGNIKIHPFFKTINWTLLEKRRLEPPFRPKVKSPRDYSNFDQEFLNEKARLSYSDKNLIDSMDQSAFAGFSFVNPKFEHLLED
In short: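 Assay buffer was 100 mM HEPES pH 7.5, 10 mM MgCl2, 25 mM NaCl, 0.1 mM EDTA, 0.01% Brij. Enzyme buffer was equilibrated with compound in DMSO for 10 min at 30 °C. Ki values were derived by non-linear regression of initial rate data.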

[3] = target: PKC alpha kinase (Homo sapiens, UniProt P17252); assay: PKC alpha kinase inhibition, coupled-enzyme NADH absorbance assay (Ki); conditions: 130 μM ATP, 4.5 nM PKC alpha, 30° C.; read-out: Ki PKC alpha

PKC theta kinase, sequence (Q04759 whole entry): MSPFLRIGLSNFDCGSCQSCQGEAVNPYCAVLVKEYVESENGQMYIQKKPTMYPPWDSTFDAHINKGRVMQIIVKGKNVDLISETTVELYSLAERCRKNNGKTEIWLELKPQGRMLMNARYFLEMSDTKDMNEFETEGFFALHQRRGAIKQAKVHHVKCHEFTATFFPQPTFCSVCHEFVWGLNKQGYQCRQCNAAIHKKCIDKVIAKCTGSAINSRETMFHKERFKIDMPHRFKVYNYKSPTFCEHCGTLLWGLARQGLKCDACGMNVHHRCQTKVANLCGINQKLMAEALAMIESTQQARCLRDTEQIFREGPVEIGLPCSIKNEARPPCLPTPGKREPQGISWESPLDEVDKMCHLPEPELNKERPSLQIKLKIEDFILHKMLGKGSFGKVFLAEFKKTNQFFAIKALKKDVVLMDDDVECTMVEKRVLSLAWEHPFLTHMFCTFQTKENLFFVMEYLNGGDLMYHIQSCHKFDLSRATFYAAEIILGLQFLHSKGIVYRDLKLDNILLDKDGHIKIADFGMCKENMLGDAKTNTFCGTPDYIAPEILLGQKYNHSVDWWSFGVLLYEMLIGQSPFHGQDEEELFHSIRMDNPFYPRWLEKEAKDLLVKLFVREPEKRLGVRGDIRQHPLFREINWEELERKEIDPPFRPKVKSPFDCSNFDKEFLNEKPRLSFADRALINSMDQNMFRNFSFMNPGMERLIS

| Compound | pKi [1] | pKi [2] | pKi [3] |
| --- | --- | --- | --- |
| NC1(c2cccc(-c3ccnc4[nH]ncc34)c2)CC1 [Compound 223] | > 5.55 | < 5.70 | < 5.92 |
| N#CC1(c2cccc(-c3ccnc4[nH]ncc34)c2)CC1 [Compound 98] | > 7.30 | > 6.30 | > 5.55 |
| CC(C#N)(Cc1ccccn1)c1cccc(-c2ccnc3[nH]ncc23)c1 (stereo not drawn) [Compound 115] | < 6.15 | < 5.70 | < 5.92 |
| C1=C(c2cccc(-c3ccnc4[nH]ncc34)c2)CCNC1 [Compound 216] | > 6.30 | > 5.55 | > 5.55 |
| CC(C)CC(C)(CN)c1cccc(-c2ccnc3[nH]ncc23)c1 (stereo not drawn) [Compound 45] | > 7.30 | > 6.30 | > 6.30 |
| CCC(CC)(CN)c1cccc(-c2ccnc3[nH]ncc23)c1 [Compound 47] | > 7.30 | > 6.30 | > 6.30 |
| NCC1(c2cccc(-c3ccnc4[nH]ncc34)c2)CC(F)(F)C1 [Compound 235] | > 7.30 | > 6.30 | < 5.92 |
| C=CCC1(c2cc(C)cc(-c3ccnc4[nH]ncc34)c2)CN(C)C(=O)O1 (stereo not drawn) [Compound 326] | > 6.30 | < 5.92 | < 5.92 |
| CC(C)(C#N)c1cc(-c2ccc[nH]2)cc(-c2ccnc3[nH]ncc23)c1 [Compound 59] | > 6.30 | < 5.55 | < 5.55 |
| OCC1(c2cccc(-c3ccnc4[nH]ncc34)c2)CCC1 [Compound 242] | > 6.30 | < 5.70 | < 5.92 |
| CCC1(c2cccc(-c3ccnc4[nH]nc(C(F)(F)F)c34)c2)CNC(=O)O1 (stereo not drawn) [Compound 288] | > 7.30 | > 5.55 | > 6.30 |
| C=Cc1cc(-c2ccnc3[nH]ncc23)cc(C(C)(C)C#N)c1 [Compound 55] | > 6.30 | > 5.55 | > 5.55 |
| CCc1n[nH]c2nccc(-c3cccc(CN)c3)c12 [Compound 270] | < 6.15 | < 5.92 | < 5.92 |
| CC(CN)(CC1CC1)c1cccc(-c2ccnc3[nH]ncc23)c1 (stereo not drawn) [Compound 129] | > 7.30 | > 7.30 | > 6.30 |
| NCC1(c2cc(N)cc(-c3ccnc4[nH]ncc34)c2)CCC1 [Compound 190] | > 6.30 | < 5.70 | < 5.92 |
| NCC1(c2cc(F)cc(-c3ccnc4[nH]ncc34)c2)CCC1 [Compound 188] | > 7.30 | > 5.55 | > 6.30 |
| CC(CC#N)c1cc(Br)cc(-c2ccnc3[nH]ncc23)c1 (stereo not drawn) [Compound 238] | > 6.30 | > 5.55 | > 5.55 |
| Cc1cnc2[nH]ncc2c1-c1cccc(C(C)(C)C#N)c1 [Compound 219] | < 6.15 | < 5.70 | < 5.92 |
| COC(CN)c1cc(C)cc(-c2ccnc3[nH]nc(C(F)(F)F)c23)c1 (stereo not drawn) [Compound 297] | > 7.30 | > 5.55 | > 6.30 |
| CCc1cc(-c2ccnc3[nH]ncc23)cc(C(C)(CC)CN)c1 (stereo not drawn) [Compound 131] | > 7.30 | > 5.55 | > 6.30 |
| Cc1cc(-c2ccnc3[nH]nc(Cl)c23)cc(C2(CN)CCOCC2)c1 [Compound 209] | > 7.30 | > 6.30 | > 6.30 |
| CCC(C)(CN)c1cc(-c2ccnc3[nH]ncc23)cc(C(C)(F)F)c1 (stereo not drawn) [Compound 165] | > 7.30 | > 6.30 | > 6.30 |
| NCC1(c2cccc(-c3ccnc4[nH]ncc34)c2)CC1 [Compound 153] | > 7.30 | > 5.55 | > 5.55 |

| Compound | pKi [1] | pKi [2] | pKi [3] |
| --- | --- | --- | --- |
| CCC(C)(C#N)c1cc(/C=C/C#N)cc(-c2ccnc3[nH]ncc23)c1 (stereo not drawn) [Compound 124] | < 6.15 | < 5.70 | < 5.92 |
| N#CC1(c2cccc(-c3ccnc4[nH]nc(C(F)(F)F)c34)c2)CCC1 [Compound 279] | > 7.30 | > 5.55 | > 5.55 |
| CCC(C)(CNC)c1cccc(-c2ccnc3[nH]ncc23)c1 (stereo not drawn) [Compound 141] | > 7.30 | > 6.30 | > 6.30 |
| CCC(C)(CN)c1cc(CCCO)cc(-c2ccnc3[nH]ncc23)c1 (stereo not drawn) [Compound 156] | > 7.30 | > 5.55 | > 6.30 |
| FC(F)C1(c2cccc(-c3ccnc4[nH]ncc34)c2)CCNC1 (stereo not drawn) [Compound 201] | > 7.30 | > 6.30 | > 6.30 |
| CC(F)c1cc(-c2ccnc3[nH]ncc23)cc(C(C)(C)CN)c1 (stereo not drawn) [Compound 136] | > 7.30 | > 5.55 | > 5.55 |
| CCSc1cc(-c2ccnc3[nH]ncc23)cc(C(C)(CC)CN)c1 (stereo not drawn) [Compound 166] | > 7.30 | > 5.55 | > 6.30 |
| CC(CN)(Cc1cscn1)c1cccc(-c2ccnc3[nH]ncc23)c1 (stereo not drawn) [Compound 170] | > 7.30 | > 5.55 | > 5.55 |
| CCC(C)(C#N)c1cc(CCCOC)cc(-c2ccnc3[nH]ncc23)c1 (stereo not drawn) [Compound 109] | > 6.30 | < 5.70 | > 5.55 |
| N#CCC1(c2cccc(-c3ccnc4[nH]ncc34)c2)CNC1 [Compound 192] | > 7.30 | > 6.30 | > 6.30 |
| C=CCC(C)(CN)c1cccc(-c2ccnc3[nH]ncc23)c1 (stereo not drawn) [Compound 134] | > 7.30 | > 6.30 | > 6.30 |
| CC#CC1(c2cc(C)cc(-c3ccnc4[nH]nc(C(F)(F)F)c34)c2)CNC(=O)O1 (stereo not drawn) [Compound 295] | < 6.15 | < 5.92 | < 5.92 |
| CCC(C)(C#N)c1cc(C=O)cc(-c2ccnc3[nH]ncc23)c1 (stereo not drawn) [Compound 120] | > 6.30 | < 5.70 | < 5.92 |
| CC(CN)(Cc1ccncc1)c1cccc(-c2ccnc3[nH]ncc23)c1 (stereo not drawn) [Compound 172] | > 7.30 | > 6.30 | > 5.55 |
| N#CC1(c2cc(CCCN)cc(-c3ccnc4[nH]nc(C(F)(F)F)c34)c2)CC1 [Compound 283, 1-(3-(3-aminopropyl)-5-(3-(trifluoromethyl)-1H-pyrazolo[3,4-b]pyridin-4-yl)phenyl)cyclopropanecarbonitrile] | > 7.30 | > 5.55 | > 6.30 |
| COCCC(C)(C#N)c1cccc(-c2ccnc3[nH]ncc23)c1 (stereo not drawn) [Compound 96] | > 5.55 | < 5.55 | < 5.55 |
| CCc1cc(-c2ccnc3[nH]nc(Cl)c23)cc(C(C)(CC)CN)c1 (stereo not drawn) [Compound 256] | > 7.30 | > 6.30 | > 7.30 |
| CC(C)C(C)(CN)c1cccc(-c2ccnc3[nH]ncc23)c1 (stereo not drawn) [Compound 48] | > 7.30 | > 6.30 | > 6.30 |
| CCC(C)(C#N)c1cc(Br)cc(-c2ccnc3[nH]ncc23)c1 (stereo not drawn) [Compound 30] | > 6.30 | > 5.55 | > 5.55 |
| CCC(C)(CN)c1cc(-c2ccnc3[nH]ncc23)cc(C(C)F)c1 (stereo not drawn) [Compound 159] | > 7.30 | > 5.55 | > 5.55 |
| CC(CN)(Cc1ccccn1)c1cccc(-c2ccnc3[nH]ncc23)c1 (stereo not drawn) [Compound 175] | > 6.30 | < 5.70 | < 5.92 |
| C=CCc1cc(-c2ccnc3[nH]ncc23)cc(C(C)(C)C#N)c1 [Compound 67] | > 6.30 | < 5.55 | > 5.55 |
